From ChEMBL document CHEMBL1909046, “DrugMatrix in vitro pharmacology data”

What was measured:
[1] = target: T1, Alpha-2A adrenergic receptor (Homo sapiens, UniProt P08913); assay type: cell membranes, Sf9, Membrane; conditions: sf9; also: in other assays of this panel Not Active means under 50% inhibition at 10 µM
T1 sequence (P08913 whole entry): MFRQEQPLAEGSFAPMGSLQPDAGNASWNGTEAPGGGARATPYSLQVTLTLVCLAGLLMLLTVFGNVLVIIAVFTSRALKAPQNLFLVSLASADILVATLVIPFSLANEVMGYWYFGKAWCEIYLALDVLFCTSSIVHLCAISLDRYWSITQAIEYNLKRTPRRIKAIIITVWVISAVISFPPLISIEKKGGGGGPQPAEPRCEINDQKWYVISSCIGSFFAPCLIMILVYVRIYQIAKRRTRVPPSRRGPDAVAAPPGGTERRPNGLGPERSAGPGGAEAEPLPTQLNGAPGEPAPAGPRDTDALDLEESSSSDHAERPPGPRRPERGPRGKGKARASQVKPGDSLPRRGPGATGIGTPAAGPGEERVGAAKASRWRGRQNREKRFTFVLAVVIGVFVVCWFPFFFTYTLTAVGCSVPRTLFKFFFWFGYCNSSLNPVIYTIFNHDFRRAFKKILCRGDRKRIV

Vasopressin V1a receptor = Vasopressin V1a receptor (Homo sapiens, UniProt P37288); assay type: cell membranes, Membrane; conditions: hek293; also: in other assays of this panel Not Active means under 50% inhibition at 10 µM
Carbonic anhydrase 2 = Carbonic anhydrase 2 (Homo sapiens, UniProt P00918); test: DRUGMATRIX: Carbonic Anhydrase II enzyme inhibition (substrate: 4-Nitrophenyl acetate (4-NPA)); assay type: tissue-based, Erythrocyte; conditions: erythrocyte; Not Active = under 50% inhibition at 10 µM
[2] = target: C-C chemokine receptor type 2 (Homo sapiens, UniProt P41597); assay type: cell membranes, Membrane; conditions: cho-k1; also: in other assays of this panel Not Active means under 50% inhibition at 10 µM
[3] = target: T2, C-C chemokine receptor type 4 (Homo sapiens, UniProt P51679); assay type: cell membranes, Membrane; conditions: chem-1; also: in other assays of this panel Not Active means under 50% inhibition at 10 µM
T2 sequence (P51679 whole entry): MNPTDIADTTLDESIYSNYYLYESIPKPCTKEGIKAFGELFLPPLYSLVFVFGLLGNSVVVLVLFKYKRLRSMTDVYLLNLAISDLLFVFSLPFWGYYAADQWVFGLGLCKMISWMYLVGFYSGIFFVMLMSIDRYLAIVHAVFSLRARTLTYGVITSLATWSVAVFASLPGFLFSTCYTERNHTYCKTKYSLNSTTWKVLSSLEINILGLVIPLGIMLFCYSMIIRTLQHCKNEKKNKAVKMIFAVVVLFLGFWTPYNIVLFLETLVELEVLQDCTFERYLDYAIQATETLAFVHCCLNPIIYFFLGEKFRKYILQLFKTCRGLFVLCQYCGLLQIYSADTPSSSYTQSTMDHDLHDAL

Melanocortin receptor 4 = Melanocortin receptor 4 (Homo sapiens, UniProt P32245); assay type: cell membranes, Membrane; conditions: hek293; also: in other assays of this panel Not Active means under 50% inhibition at 10 µM
[4] = target: Platelet-activating factor receptor (Homo sapiens, UniProt P25105); assay type: tissue-based; also: in other assays of this panel Not Active means under 50% inhibition at 10 µM
Cathepsin G = target: T3, Cathepsin G (Homo sapiens, UniProt P08311); assay type: tissue-based; conditions: neutrophil
T3 sequence (P08311 whole entry): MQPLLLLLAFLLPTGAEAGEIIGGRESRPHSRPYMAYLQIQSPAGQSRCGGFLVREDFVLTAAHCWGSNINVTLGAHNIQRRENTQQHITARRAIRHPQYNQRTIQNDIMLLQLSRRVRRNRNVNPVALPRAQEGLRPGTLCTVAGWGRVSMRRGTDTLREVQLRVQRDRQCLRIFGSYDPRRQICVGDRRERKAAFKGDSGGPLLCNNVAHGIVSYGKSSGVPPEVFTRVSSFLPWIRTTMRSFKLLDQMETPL

Estrogen receptor beta = Estrogen receptor beta (Homo sapiens, UniProt Q92731); conditions: sf9; also: in other assays of this panel Not Active means under 50% inhibition at 10 µM
Chain of Estrogen receptor beta (Q92731 whole entry): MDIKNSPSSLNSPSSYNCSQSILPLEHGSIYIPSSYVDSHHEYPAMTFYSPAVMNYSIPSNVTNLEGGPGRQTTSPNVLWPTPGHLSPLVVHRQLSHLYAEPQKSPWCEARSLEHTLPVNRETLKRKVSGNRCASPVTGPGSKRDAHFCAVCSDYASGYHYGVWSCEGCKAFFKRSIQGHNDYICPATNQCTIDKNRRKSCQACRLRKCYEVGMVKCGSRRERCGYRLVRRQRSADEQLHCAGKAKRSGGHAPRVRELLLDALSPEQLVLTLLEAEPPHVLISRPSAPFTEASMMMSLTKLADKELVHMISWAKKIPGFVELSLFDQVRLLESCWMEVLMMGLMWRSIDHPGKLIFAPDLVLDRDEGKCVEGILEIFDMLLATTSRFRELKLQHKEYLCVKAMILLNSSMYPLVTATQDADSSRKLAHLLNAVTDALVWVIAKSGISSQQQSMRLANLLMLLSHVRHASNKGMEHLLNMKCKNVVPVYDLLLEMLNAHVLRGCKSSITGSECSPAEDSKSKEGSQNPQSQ

Chain of C-C chemokine receptor type 2 (P41597 whole entry): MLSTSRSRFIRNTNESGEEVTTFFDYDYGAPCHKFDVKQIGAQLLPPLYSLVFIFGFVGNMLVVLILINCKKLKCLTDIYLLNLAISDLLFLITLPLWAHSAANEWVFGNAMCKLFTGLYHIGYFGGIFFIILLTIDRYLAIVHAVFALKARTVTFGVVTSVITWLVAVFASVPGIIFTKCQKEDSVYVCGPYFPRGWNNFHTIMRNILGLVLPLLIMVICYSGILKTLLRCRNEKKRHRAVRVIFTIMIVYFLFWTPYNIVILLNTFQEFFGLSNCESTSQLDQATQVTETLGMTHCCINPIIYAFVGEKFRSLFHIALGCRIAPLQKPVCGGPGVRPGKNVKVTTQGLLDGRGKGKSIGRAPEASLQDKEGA
Chain of Vasopressin V1a receptor (P37288 whole entry): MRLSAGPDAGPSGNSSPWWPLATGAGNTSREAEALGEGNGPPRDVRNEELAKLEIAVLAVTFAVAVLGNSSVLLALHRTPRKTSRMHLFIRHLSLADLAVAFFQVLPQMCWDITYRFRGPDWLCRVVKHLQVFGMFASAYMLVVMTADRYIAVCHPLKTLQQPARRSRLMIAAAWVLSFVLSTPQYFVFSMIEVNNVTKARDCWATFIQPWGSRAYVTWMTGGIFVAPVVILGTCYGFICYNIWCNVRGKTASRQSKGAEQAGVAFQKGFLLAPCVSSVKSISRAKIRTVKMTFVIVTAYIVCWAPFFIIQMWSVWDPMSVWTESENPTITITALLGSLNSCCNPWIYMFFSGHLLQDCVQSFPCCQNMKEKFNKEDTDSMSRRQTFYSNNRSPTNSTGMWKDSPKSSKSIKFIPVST
Chain of Melanocortin receptor 4 (P32245 whole entry): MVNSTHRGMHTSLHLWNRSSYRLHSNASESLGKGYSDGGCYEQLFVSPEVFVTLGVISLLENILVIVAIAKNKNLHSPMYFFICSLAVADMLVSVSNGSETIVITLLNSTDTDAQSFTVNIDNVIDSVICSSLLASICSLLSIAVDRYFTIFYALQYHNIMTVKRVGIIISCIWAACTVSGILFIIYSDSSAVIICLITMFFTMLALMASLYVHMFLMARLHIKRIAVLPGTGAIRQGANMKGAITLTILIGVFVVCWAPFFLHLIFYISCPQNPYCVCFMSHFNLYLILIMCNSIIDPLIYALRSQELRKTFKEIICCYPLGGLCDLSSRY
Chain of Platelet-activating factor receptor (P25105 whole entry): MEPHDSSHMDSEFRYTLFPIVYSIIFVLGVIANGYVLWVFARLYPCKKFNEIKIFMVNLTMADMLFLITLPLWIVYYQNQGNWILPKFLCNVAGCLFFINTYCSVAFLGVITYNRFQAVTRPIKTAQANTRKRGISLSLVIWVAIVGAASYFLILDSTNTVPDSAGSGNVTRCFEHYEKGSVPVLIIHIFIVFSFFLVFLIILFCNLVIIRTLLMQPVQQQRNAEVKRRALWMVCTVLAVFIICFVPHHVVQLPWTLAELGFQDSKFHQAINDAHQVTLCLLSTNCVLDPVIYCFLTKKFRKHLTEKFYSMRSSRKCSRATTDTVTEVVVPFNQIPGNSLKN

CC(=O)OCC(COC(C)=O)OC(C)=O [TRIACETIN]
Not Active: IC50 [1] | IC50 (Vasopressin V1a receptor) | IC50 (Carbonic anhydrase 2) | IC50 [2] | Ki [3] | IC50 (Melanocortin receptor 4) | IC50 [4] | IC50 (Cathepsin G) | IC50 (Estrogen receptor beta)

TRANSPLATIN
Not Active: IC50 [1] | Ki [1] | IC50 (Vasopressin V1a receptor) | Ki (Vasopressin V1a receptor) | IC50 (Carbonic anhydrase 2) | Ki (Carbonic anhydrase 2) | IC50 [2] | Ki [2] | IC50 [3] | Ki [3] | IC50 (Melanocortin receptor 4) | Ki (Melanocortin receptor 4) | IC50 [4] | Ki [4] | IC50 (Cathepsin G) | Ki (Cathepsin G) | IC50 (Estrogen receptor beta) | Ki (Estrogen receptor beta)

O=C(O)COc1ccc(C(=O)c2cccs2)c(Cl)c1Cl
Not Active: IC50 [1] | IC50 (Vasopressin V1a receptor) | IC50 (Carbonic anhydrase 2) | IC50 [2] | IC50 [3] | IC50 (Melanocortin receptor 4) | IC50 [4] | IC50 (Cathepsin G) | IC50 (Estrogen receptor beta)

ZIRCONIUM(IV) CHLORIDE
Not Active: IC50 [1] | Ki [1] | IC50 (Vasopressin V1a receptor) | Ki (Vasopressin V1a receptor) | IC50 (Carbonic anhydrase 2) | Ki (Carbonic anhydrase 2) | IC50 [2] | Ki [2] | IC50 [3] | Ki [3] | IC50 (Melanocortin receptor 4) | Ki (Melanocortin receptor 4) | IC50 [4] | Ki [4] | IC50 (Cathepsin G) | Ki (Cathepsin G) | IC50 (Estrogen receptor beta) | Ki (Estrogen receptor beta)
